Results reported in the NIST ThermoML archive (doi:10.1016/j.fluid.2006.01.008).

What was measured:
[1] = 298.15 K, 101.33 kPa, Liquid; for viscosity: Capillary tube (Ostwald / Ubbelohde) method; for speed of sound: Sing-around technique in a fixed-path interferometer; for mass density: Vibrating tube method
[2] = refractive index (Na D-line) (dimensionless); conditions: 298.15 K; 101.33 kPa; Liquid; Standard Abbe refractometry
[3] = xn = mol fraction of the nth substance listed; conditions: 298.15 K, 101 kPa, Liquid; for viscosity: Capillary tube (Ostwald / Ubbelohde) method; for speed of sound: Sing-around technique in a fixed-path interferometer; for mass density: Vibrating tube method
[4] = refractive index (Na D-line) (dimensionless); xn = mol fraction of the nth substance listed; conditions: 298.15 K, 101 kPa, Liquid, Standard Abbe refractometry

CCCCCCCC[n+]1ccn(C)c1.F[B-](F)(F)F [1-methyl-3-octylimidazolium tetrafluoroborate]
Conditions	mass density [kg/m3]	refractive index	speed of sound [m/s]	viscosity [mPa·s]
[1]	1105.3	–	1491	359.9
[2]	–	1.43422	–	–

CCCCCCCC[n+]1ccn(C)c1.F[B-](F)(F)F [1-methyl-3-octylimidazolium tetrafluoroborate] + CC(C)O
Conditions	mass density, [3] [kg/m3]	refractive index, [4]	speed of sound, [3] [m/s]	viscosity, [3] [mPa·s]
x1 = 0.0459	826.83	1.38385	1170	2.956
x1 = 0.0892	862.39	1.39059	1198	3.955
x1 = 0.182	921.09	1.40147	1254	7.053
x1 = 0.2506	953.75	1.40743	1291	10.15
x1 = 0.2965	972	1.41077	1312	12.88
x1 = 0.3677	996.08	1.41503	1343	18.27
x1 = 0.4214	1011.52	1.41781	1362	23.79
x1 = 0.4798	1026.24	1.42048	1381	31.66
x1 = 0.5028	1031.53	1.42134	1387	35.48
x1 = 0.6166	1054.39	1.42547	1416	61.95
x1 = 0.7089	1069.7	1.42817	1437	96.3
x1 = 0.7558	1076.59	1.42938	1446	120.5
x1 = 0.8697	1091.33	1.43182	1467	202.6

CCCCCCCC[n+]1ccn(C)c1.F[B-](F)(F)F [1-methyl-3-octylimidazolium tetrafluoroborate] + CCCO
Conditions	mass density, [3] [kg/m3]	refractive index, [4]	speed of sound, [3] [m/s]	viscosity, [3] [mPa·s]
x1 = 0.0473	844.63	1.39108	1232	2.789
x1 = 0.0982	883.64	1.3978	1256	3.942
x1 = 0.2034	943.18	1.40783	1306	7.531
x1 = 0.241	959.69	1.41061	1321	9.169
x1 = 0.2958	980.53	1.41405	1343	12.21
x1 = 0.4007	1012.5	1.41928	1377	20.65
x1 = 0.4355	1021.38	1.42071	1387	24.52
x1 = 0.4988	1035.79	1.42301	1403	33.31
x1 = 0.5506	1046.19	1.42472	1414	43.39
x1 = 0.6165	1057.95	1.42671	1428	59.9
x1 = 0.6778	1067.63	1.42832	1439	79.52
x1 = 0.7828	1081.97	1.43069	1457	130.9
x1 = 0.9118	1096.63	1.43297	1477	238.4

CCCCCCCC[n+]1ccn(C)c1.F[B-](F)(F)F [1-methyl-3-octylimidazolium tetrafluoroborate] + CCO
Conditions	mass density, [3] [kg/m3]	refractive index, [4]	speed of sound, [3] [m/s]	viscosity, [3] [mPa·s]
x1 = 0.0517	849.43	1.37489	1195	1.74
x1 = 0.0818	878.24	1.38179	1218	2.25
x1 = 0.1822	946.85	1.39805	1287	4.722
x1 = 0.2779	988.78	1.40778	1336	8.542
x1 = 0.378	1019.53	1.41488	1376	14.99
x1 = 0.46	1038.64	1.41926	1398	23.42
x1 = 0.5474	1054.97	1.42304	1419	37.38
x1 = 0.5537	1056.01	1.42326	1420	38.62
x1 = 0.5636	1057.63	1.42362	1422	40.81
x1 = 0.6203	1066.22	1.4256	1434	54.88
x1 = 0.662	1071.9	1.42683	1441	67.91
x1 = 0.7749	1085.35	1.42973	1459	120.4
x1 = 0.9286	1099.7	1.43293	1481	251.9

CCCCCCCC[n+]1ccn(C)c1.F[B-](F)(F)F [1-methyl-3-octylimidazolium tetrafluoroborate] + CO
Conditions	mass density, [3] [kg/m3]	refractive index, [4]	speed of sound, [3] [m/s]	viscosity, [3] [mPa·s]
x1 = 0.0495	869.02	1.35534	1188	0.981
x1 = 0.0979	921.23	1.3733	1243	1.622
x1 = 0.1997	986.4	1.39501	1323	3.85
x1 = 0.2859	1018.55	1.40551	1366	7.131
x1 = 0.3648	1038.89	1.41222	1394	11.81
x1 = 0.4461	1054.52	1.41738	1416	18.9
x1 = 0.4922	1061.78	1.41982	1426	24.16
x1 = 0.5121	1064.62	1.42076	1430	27.22
x1 = 0.5709	1072.21	1.42339	1440	38.28
x1 = 0.5972	1075.25	1.42443	1445	44.63
x1 = 0.6485	1080.67	1.42629	1452	57.72
x1 = 0.785	1092.37	1.43029	1469	123.9
x1 = 0.9049	1100.21	1.43284	1482	228.6

CCO [ethanol]
Conditions	mass density [kg/m3]	refractive index	speed of sound [m/s]	viscosity [mPa·s]
[1]	785.22	–	1144	1.077
[2]	–	1.3592	–	–

CO [methanol]
Conditions	mass density [kg/m3]	refractive index	speed of sound [m/s]	viscosity [mPa·s]
[1]	786.63	–	1102	0.541
[2]	–	1.3264	–	–

CCCO [propan-1-ol]
Conditions	mass density [kg/m3]	refractive index	speed of sound [m/s]	viscosity [mPa·s]
[1]	799.47	–	1207	1.928
[2]	–	1.38306	–	–

CC(C)O [propan-2-ol]
Conditions	mass density [kg/m3]	refractive index	speed of sound [m/s]	viscosity [mPa·s]
[1]	780.95	–	1140	2.054
[2]	–	1.3752	–	–
